For experiment [1], the target named is T1, Dual specificity protein kinase CLK1 (Homo sapiens, UniProt P49759). The experiment can be described thus: Inhibition of human recombinant GST-tagged Clk1 (129 to 484 residues) expressed in Escherichia coli expression system at 100 nM using GRSRSRSRSRSRSRS peptide as substrate incubated for 15 mins in presence of ATP by phosphoimager analysis relative to control.
Target sequence in this assay (P49759 whole entry, looked up, the tested form may be a part): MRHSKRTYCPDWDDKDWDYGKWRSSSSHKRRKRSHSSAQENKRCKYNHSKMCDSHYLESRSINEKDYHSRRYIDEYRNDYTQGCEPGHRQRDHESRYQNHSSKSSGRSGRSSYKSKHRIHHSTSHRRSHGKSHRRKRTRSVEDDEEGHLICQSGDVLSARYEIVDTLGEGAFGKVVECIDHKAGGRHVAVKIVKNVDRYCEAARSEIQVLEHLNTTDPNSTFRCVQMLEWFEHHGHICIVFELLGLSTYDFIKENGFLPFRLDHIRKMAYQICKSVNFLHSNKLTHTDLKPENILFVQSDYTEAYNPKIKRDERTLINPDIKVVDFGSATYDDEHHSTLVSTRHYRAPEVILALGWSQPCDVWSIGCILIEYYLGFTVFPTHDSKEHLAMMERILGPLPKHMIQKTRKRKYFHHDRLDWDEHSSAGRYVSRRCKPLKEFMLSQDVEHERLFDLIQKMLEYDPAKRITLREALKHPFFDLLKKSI

Experiment [2] has as its target T1, Dual specificity protein kinase CLK1. In words: Inhibition of human recombinant GST-tagged Clk1 (129 to 484 residues) expressed in Escherichia coli expression system using GRSRSRSRSRSRSRS peptide as substrate incubated for 15 mins in presence of ATP by phosphoimager analysis.
Target sequence in this assay (P49759 whole entry, the tested form may be a part): as the sequence (P49759 whole entry, looked up, the tested form may be a part) above
Experiment [3] concerns the target T2, Dual specificity protein kinase CLK2 (Homo sapiens, UniProt P49760). In words: Inhibition of human recombinant GST-tagged Clk2 expressed in Baculovirus expression system using GRSRSRSRSRSRSRS peptide as substrate incubated for 15 mins in presence of ATP by phosphoimager analysis.
Target sequence in this assay (P49760 whole entry): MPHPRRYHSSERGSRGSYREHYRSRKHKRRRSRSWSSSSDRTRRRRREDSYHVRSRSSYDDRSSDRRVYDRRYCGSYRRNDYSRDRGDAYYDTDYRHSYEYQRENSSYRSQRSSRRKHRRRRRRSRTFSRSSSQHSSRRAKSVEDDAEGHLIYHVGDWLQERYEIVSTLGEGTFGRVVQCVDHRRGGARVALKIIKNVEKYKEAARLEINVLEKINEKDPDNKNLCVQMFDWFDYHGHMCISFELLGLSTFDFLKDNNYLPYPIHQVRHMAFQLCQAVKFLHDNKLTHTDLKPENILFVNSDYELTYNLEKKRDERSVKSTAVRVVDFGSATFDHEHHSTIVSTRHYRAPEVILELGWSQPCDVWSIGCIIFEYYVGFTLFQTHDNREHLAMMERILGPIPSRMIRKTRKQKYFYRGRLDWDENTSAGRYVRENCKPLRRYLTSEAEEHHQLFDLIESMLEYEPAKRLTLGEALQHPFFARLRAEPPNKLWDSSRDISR
The target of experiment [4] is T2, Dual specificity protein kinase CLK2. The experiment can be described thus: Inhibition of human recombinant GST-tagged Clk2 expressed in Baculovirus expression system at 0.25 uM using GRSRSRSRSRSRSRS peptide as substrate incubated for 15 mins in presence of ATP by phosphoimager analysis relative to control.
Target sequence in this assay (P49760 whole entry, looked up): as the sequence (P49760 whole entry) above
Experiment [5] is filed under the species Homo sapiens. In words: Selectivity index, ratio of IC50 for human Clk2 to IC50 for human Clk1 by phosphoimager analysis.
Experiment [6] is filed under the species Homo sapiens. The experiment can be described thus: Selectivity ratio of IC50 for human Clk2 to IC50 for human Clk1.
For experiment [7], the species on record is Homo sapiens. The experiment can be described thus: Selectivity ratio of IC50 for human DYRK1A to IC50 for human Clk1.
Experiment [8] is filed under the species Homo sapiens. The experiment can be described thus: Selectivity ratio of IC50 for human Clk2 to IC50 for human Clk1 by ADP-Glo assay. (In general: ADP-Glo turns the ADP formed in a reaction into a luminescent signal.)
In the next experiment the test system is T-24. The experiment can be described thus: Antiproliferative activity against human T24 cells assessed as cell growth inhibition measured after 3 days by MTT assay. It counts as functional. The note with it: T-24, 72 h, time 3 day.
Experiment [9] concerns the target Casein kinase I isoform delta (Homo sapiens) (UniProt P48730). In words: Inhibition of human recombinant GST tagged full length CSNK1D expressed in Baculovirus expression system at 1 uM relative to control.
The species named for experiment [10] is Homo sapiens. In words: Inhibition of CK2 (unknown origin) at 1 uM relative to control.
For experiment [11], the target named is Dual specificity protein kinase CLK3 (Homo sapiens) (UniProt P49761). In words: Inhibition of human recombinant GST-tagged full length CLK3 expressed in Baculovirus expression system at 1 uM relative to control.
Dual specificity protein kinase CLK3 (Homo sapiens), sequence (P49761 whole entry, looked up): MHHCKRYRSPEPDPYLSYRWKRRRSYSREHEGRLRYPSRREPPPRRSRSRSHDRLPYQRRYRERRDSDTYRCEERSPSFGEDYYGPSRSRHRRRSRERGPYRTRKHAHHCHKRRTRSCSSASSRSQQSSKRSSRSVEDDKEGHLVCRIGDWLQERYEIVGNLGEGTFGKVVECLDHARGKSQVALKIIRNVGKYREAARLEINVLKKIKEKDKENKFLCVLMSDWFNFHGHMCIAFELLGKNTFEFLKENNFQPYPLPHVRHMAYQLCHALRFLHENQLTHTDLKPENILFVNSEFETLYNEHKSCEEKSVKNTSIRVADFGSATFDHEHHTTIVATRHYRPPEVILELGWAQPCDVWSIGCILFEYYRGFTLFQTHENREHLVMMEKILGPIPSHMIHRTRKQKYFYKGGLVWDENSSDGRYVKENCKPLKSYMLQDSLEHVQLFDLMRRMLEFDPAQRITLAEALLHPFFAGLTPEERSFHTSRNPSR
The target in experiment [12] is Dual specificity protein kinase CLK4 (Homo sapiens, UniProt Q9HAZ1). In words: Inhibition of human recombinant GST tagged full length CLK4 expressed in Baculovirus expression system at 1 uM relative to control.
Dual specificity protein kinase CLK4, sequence (Q9HAZ1 whole entry, looked up): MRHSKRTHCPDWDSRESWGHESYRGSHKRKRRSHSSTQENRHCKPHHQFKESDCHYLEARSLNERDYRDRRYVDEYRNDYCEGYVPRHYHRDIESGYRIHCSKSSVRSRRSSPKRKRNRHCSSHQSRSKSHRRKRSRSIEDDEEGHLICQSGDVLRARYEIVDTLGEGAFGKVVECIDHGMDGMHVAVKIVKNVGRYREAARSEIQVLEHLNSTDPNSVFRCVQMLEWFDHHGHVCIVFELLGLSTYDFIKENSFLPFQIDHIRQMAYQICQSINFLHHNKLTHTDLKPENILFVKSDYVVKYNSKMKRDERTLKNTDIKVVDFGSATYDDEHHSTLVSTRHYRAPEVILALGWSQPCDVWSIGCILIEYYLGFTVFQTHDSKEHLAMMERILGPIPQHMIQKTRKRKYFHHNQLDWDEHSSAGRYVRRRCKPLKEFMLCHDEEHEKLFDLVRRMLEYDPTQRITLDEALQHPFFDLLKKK
The target in experiment [13] is Dual specificity tyrosine-phosphorylation-regulated kinase 1A (Homo sapiens) (UniProt Q13627). In words: Inhibition of human recombinant GST tagged full length DYRK1A expressed in Baculovirus expression system at 1 uM relative to control.
In experiment [14] the target is T3, Serine/threonine-protein kinase haspin (Homo sapiens) (UniProt Q8TF76).
T3 sequence (whole entry): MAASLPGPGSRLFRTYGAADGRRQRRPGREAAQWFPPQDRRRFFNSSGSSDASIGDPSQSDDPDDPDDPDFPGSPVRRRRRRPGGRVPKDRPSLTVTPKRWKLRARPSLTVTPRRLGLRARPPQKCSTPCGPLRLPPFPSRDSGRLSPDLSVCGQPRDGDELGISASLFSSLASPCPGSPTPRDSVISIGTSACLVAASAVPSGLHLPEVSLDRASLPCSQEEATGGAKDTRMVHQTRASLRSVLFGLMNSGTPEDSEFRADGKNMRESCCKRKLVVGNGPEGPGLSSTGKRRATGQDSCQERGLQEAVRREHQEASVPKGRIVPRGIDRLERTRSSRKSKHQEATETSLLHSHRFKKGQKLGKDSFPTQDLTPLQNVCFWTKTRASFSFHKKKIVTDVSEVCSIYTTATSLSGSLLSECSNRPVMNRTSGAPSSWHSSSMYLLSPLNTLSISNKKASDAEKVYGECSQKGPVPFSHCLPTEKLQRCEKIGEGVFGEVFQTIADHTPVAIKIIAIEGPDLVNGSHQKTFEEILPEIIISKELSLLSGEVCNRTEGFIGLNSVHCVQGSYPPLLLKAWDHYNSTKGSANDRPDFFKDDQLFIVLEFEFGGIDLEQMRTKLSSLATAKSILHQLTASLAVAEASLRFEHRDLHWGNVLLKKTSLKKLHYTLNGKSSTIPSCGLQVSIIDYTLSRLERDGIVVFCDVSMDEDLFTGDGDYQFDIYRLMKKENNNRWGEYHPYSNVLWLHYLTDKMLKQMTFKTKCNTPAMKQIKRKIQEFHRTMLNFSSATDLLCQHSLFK
In words: Inhibition of human recombinant GST tagged full length Haspin catalytic domain expressed in Baculovirus expression system at 1 uM relative to control.

Experiment [15] has as its target Homeodomain-interacting protein kinase 1 (Homo sapiens) (UniProt Q86Z02). In words: Inhibition of human recombinant GST tagged HIPK1 expressed in Baculovirus expression system at 1 uM relative to control.
The target in experiment [16] is Serine/threonine-protein kinase pim-1 (Homo sapiens) (UniProt P11309). In words: Inhibition of human recombinant His tagged full length Pim1 expressed in Baculovirus expression system at 1 uM relative to control.
Serine/threonine-protein kinase pim-1 (Homo sapiens), sequence (P11309 whole entry, looked up): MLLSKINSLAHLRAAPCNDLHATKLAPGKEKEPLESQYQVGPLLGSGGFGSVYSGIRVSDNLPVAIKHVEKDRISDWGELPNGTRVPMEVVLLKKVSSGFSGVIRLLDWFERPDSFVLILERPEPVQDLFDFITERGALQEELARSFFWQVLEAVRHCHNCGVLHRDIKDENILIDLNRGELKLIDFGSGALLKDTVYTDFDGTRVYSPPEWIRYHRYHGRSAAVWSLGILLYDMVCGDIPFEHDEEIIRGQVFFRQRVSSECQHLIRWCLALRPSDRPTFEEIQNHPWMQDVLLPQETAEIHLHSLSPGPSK
Experiment [17] deals with SRSF protein kinase 1 (Homo sapiens) (UniProt Q96SB4). In words: Inhibition of human recombinant His tagged full length SRPK1 expressed in Baculovirus expression system at 1 uM relative to control.
SRSF protein kinase 1 (Homo sapiens), sequence (Q96SB4 whole entry): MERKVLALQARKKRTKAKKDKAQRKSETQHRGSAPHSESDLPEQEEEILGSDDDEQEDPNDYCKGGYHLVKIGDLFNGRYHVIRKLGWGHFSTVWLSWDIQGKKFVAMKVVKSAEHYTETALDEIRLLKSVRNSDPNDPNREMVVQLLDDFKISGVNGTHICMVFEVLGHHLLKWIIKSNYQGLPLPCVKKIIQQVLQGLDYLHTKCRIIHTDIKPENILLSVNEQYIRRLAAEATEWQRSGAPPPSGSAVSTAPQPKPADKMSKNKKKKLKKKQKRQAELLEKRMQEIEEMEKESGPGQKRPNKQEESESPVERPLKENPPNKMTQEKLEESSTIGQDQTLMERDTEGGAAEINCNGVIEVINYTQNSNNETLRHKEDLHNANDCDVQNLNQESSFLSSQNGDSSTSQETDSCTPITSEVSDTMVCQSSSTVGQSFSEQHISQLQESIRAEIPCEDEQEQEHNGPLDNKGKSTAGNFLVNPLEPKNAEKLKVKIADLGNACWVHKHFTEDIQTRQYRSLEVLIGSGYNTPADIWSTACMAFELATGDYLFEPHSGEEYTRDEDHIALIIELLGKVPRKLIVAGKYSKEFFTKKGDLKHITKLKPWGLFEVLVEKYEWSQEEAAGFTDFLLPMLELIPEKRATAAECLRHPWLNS
In experiment [18] the target is BDNF/NT-3 growth factors receptor (Homo sapiens) (UniProt Q16620). In words: Inhibition of human recombinant His tagged full length TRKB expressed in Baculovirus expression system at 1 uM relative to control.

The results in this text go back to ChEMBL document CHEMBL5113421, “Development of novel conformationally restricted selective Clk1/4 inhibitors through creating an intramolecular hydrogen bond involving an imide linker” (Eur J Med Chem, 2022).

As usually defined, the inhibition is how much of the control response was suppressed. By pIC50 is commonly meant −log10 of the IC50, conventionally taken in molar units. As usually defined, the GI50 is the concentration that inhibits growth by half.

pIC50: −log10 of the molar value. Bounds are passed on as bounds.

Casein kinase I isoform delta (Homo sapiens), sequence (P48730 whole entry, looked up, canonical isoform): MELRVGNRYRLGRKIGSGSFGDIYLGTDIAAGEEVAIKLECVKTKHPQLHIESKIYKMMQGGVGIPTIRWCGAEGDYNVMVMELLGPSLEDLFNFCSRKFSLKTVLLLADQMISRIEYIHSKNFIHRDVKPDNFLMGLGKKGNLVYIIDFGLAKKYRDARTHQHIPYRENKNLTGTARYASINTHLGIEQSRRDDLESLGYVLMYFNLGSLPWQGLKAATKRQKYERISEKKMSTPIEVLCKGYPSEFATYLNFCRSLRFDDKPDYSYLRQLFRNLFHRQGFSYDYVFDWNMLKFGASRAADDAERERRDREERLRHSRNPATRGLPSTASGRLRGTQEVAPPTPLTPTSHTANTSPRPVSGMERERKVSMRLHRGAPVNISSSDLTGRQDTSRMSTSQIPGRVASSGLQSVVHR
Homeodomain-interacting protein kinase 1 (Homo sapiens), sequence (Q86Z02 whole entry, looked up): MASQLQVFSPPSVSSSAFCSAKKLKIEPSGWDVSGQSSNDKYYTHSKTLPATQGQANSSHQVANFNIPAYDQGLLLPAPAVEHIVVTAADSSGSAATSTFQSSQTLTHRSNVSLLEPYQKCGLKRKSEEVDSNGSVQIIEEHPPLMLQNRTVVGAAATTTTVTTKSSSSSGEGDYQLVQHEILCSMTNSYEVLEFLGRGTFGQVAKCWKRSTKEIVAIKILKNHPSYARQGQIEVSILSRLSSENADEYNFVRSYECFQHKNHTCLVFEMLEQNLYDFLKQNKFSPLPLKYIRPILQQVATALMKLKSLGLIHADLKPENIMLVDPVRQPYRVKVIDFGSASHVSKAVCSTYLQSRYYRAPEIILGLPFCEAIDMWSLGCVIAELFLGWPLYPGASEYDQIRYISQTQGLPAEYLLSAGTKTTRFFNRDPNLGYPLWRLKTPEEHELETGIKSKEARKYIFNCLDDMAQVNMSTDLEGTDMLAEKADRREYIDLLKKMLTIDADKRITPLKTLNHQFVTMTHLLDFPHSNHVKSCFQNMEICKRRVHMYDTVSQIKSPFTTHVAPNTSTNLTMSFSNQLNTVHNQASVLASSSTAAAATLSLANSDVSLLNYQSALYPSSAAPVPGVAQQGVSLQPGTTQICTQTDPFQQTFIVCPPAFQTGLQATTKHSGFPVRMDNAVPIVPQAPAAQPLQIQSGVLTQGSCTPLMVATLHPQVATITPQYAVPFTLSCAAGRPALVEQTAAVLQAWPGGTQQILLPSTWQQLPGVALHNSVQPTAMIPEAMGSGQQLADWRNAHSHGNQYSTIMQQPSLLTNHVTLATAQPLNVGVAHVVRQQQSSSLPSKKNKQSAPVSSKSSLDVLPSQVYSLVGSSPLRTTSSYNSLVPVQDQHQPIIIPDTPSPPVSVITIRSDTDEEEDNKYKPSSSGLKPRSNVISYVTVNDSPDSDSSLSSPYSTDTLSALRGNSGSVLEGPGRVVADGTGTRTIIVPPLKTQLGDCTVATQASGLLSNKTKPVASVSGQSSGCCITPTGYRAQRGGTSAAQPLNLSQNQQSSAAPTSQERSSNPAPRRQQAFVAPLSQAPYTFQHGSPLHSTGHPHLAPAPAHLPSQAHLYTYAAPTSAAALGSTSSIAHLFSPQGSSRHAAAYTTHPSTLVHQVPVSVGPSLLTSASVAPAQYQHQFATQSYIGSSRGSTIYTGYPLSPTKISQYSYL

With `COc1ccc2sc(C(=O)NC(=O)c3cc(F)ccc3F)cc2c1`, the inhibition in experiment [1] is 65.6%. Also, the pIC50 in experiment [2] was 7.15.
On to `COc1cc(F)c(C(=O)NC(=O)c2cc3cc(OC)ccc3s2)c(F)c1`, for which the inhibition in experiment [1] came out at 10.6%.
As to `COc1ccc2sc(C(=O)NC(=O)c3cc(F)cc(F)c3)cc2c1`, the inhibition in experiment [1] was determined as 54.6%.
Consider `COc1ccc2sc(C(=O)NC(=O)c3ccc(Cl)cc3OC)cc2c1`, for which the inhibition in experiment [1] worked out at 49.5%.
With `COc1ccc2sc(C(=O)NC(=O)c3ccccc3OC)cc2c1`, the inhibition in experiment [1] was determined as 86.6%. For the same molecule, the pIC50 in [2] is 7.46.
On to `COc1ccc2sc(C(=O)NC(=O)c3cc(F)ccc3OC)cc2c1`, for which the inhibition was 83.3% in [1] and 52.6% in [4]. Besides, the pIC50 in experiment [2] is 7.74; in experiment [3], 6.60. For the same molecule, the Ratio IC50 in the experiment filed under Homo sapiens [5] is 13.6.
As for `COc1ccc2sc(C(=O)NC(=O)c3cc(C(F)(F)F)ccc3OC)cc2c1`, in [1], the inhibition turned out to be 9.6%.
`COc1ccc(OC)c(C(=O)NC(=O)c2cc3cc(OC)ccc3s2)c1`: the inhibition in [1] came to 30.8%.
On to `COc1ccc2sc(C(=O)N(C)Cc3cc(F)cc(F)c3)cc2c1`, for which the Ratio IC50 came out at 9.8 in the experiment filed under Homo sapiens [6] and 28 in the experiment listed under Homo sapiens [7].
Take `COc1ccc2sc(C(=O)NC(=O)c3ccc(C)cc3OC)cc2c1`: the inhibition in experiment [1] was 50.9%.
Turning to `COc1ccc2sc(C(=O)NC(=O)c3ccccc3Cl)cc2c1`, the inhibition in [1] stood at 61.4%. Also, the pIC50 in experiment [2] was 7.04.
Consider `COc1ccc2sc(C(=O)NC(=O)c3cccc4c3OCCO4)cc2c1`, for which the inhibition in experiment [1] stood at 9.2%.
Same read-out and setting: next, `COc1cccc(C(=O)NC(=O)c2cc3cc(OC)ccc3s2)c1`: 36.5%.
As to `CC(C)(C)c1ccc(C(=O)Nc2cn3cc(-c4cn[nH]c4)ccc3n2)cn1`, the Ratio IC50 in the experiment listed under Homo sapiens [8] worked out at 2.2.
For `COc1ccc2sc(C(=O)NC(=O)c3ccccc3F)cc2c1`, in experiment [1], the inhibition came to 16.5%.
Regarding `COc1ccc2sc(C(=O)NC(=O)c3ccccc3OC(F)(F)F)cc2c1`, the inhibition in [1] was determined as 64.4%. In addition, the pIC50 in experiment [2] was 7.31. The GI50 in the experiment with T-24 was determined as 1.1 µM.
In the case of `COc1ccc2sc(C(=O)NC(=O)c3ccno3)cc2c1`, the inhibition in experiment [1] was determined as 12.1%.
In the case of `COc1ccc2sc(C(=O)NC(=O)c3cccc(F)c3)cc2c1`, the inhibition in [1] worked out at 38.5%.
On to `COc1ccc(C(=O)NC(=O)c2cc3cc(OC)ccc3s2)c(OC)c1`, for which, in experiment [1], the inhibition was 42.2%. In addition, the GI50 in the experiment with T-24 is > 15 µM.
Regarding `COc1ccc2sc(C(=O)NC(=O)c3cc(Cl)cnc3OC)cc2c1`, the inhibition in [1] came to 44.9%.
On to `COc1ccc2sc(C(=O)N(C)C(=O)c3ccccc3OC)cc2c1`, for which, in [1], the inhibition turned out to be 15.7%.
Regarding `COc1ccc2sc(C(=O)NC(=O)c3ccc(F)cc3)cc2c1`, the inhibition in experiment [1] is 35.7%.
Consider `COc1ccc2sc(C(=O)NC(=O)c3cc(C)on3)cc2c1`, for which, in experiment [1], the inhibition is 7.3%.
With `COc1ccc2sc(C(=O)NC(=O)c3cccc(Cl)c3OC)cc2c1`, the inhibition in [1] was found to be 2.2%.
Regarding `COc1ccc2sc(C(=O)NC(=O)c3cc(C)ccc3OC)cc2c1`, in [1], the inhibition worked out at 42.7%.
Regarding `COc1ccc2sc(C(=O)NC(=O)c3ccccc3C)cc2c1`, the inhibition in experiment [1] was found to be 6.5%.
On to `COc1ccc2sc(C(=O)NC(=O)c3cccc4c3OC(F)(F)O4)cc2c1`, for which the inhibition in experiment [1] is 43.1%.
On to `COc1ccc2sc(C(=O)NC(=O)c3ccc(OC)c(F)c3)cc2c1`, for which, in experiment [1], the inhibition turned out to be 5.9%.
As for `COc1ccc2sc(C(=O)NC(=O)c3cccc(Cl)n3)cc2c1`, the inhibition in experiment [1] worked out at 33%.
Turning to `COc1ccc2sc(C(=O)NC(=O)c3ccccc3)cc2c1`, the inhibition in experiment [1] came to 56.1%.
For the molecule `COc1ccc2sc(C(=O)NC(=O)c3ccc(Br)cc3OC)cc2c1`, the values for the inhibition in experiment [1] and in experiment [4] were 61% and 3.4%, respectively. Moreover, the pIC50 in experiment [2] was 7.12; in experiment [3], < 6.60. The Ratio IC50 in the experiment listed under Homo sapiens [5] was > 3.3.
For `COc1ccc2sc(C(=O)NC(=O)c3cccc(OC)n3)cc2c1`, the inhibition in [1] was found to be 42.3%.
For `COc1ccc2sc(C(=O)NC(=O)c3cccc(OC)c3OC)cc2c1`, the inhibition in experiment [1] is 27.7%.
On the same count and under the same terms, next, `COc1ccc2sc(C(=O)NC(=O)c3c(OC)cccc3OC)cc2c1`: 12.2%; `COc1ccc2sc(C(=O)NC(=O)c3ccc(OC)c(OC)c3)cc2c1`: 12.4%; `COc1ccc(F)c(C(=O)NC(=O)c2cc3cc(OC)ccc3s2)c1`: 7.8%.
Turning to `COc1ccc2sc(C(=O)NC(=O)c3cc(C)cc(F)c3)cc2c1`, the inhibition in [1] was 51.8%.
As to `CCCOc1ccccc1C(=O)NC(=O)c1cc2cc(OC)ccc2s1`, in [1], the inhibition is 62.3%. Further, the pIC50 in experiment [2] was 7.05.
In the case of `COc1ccc2sc(C(=O)NC(=O)c3ccc(F)cc3OC)cc2c1`, the inhibition in experiment [1] stood at 74.5%; in experiment [4], 47.1%; in experiment [9], 11%; in the experiment filed under Homo sapiens [10] it was 5%; in experiment [11] it was 59%; in experiment [12], 96%. Further, the inhibition in [13] is 48%; in [14], 29%; in [15], 7%; in experiment [16], 52%; in experiment [17], 4%; in [18], 10%. For the same molecule, the pIC50 in experiment [2] is 8.40; in [3] it was < 6.60. The Ratio IC50 in the experiment filed under Homo sapiens [5] was > 62.5. Also, the GI50 with T-24 is > 15 µM.
As for `CCOc1ccccc1C(=O)NC(=O)c1cc2cc(OC)ccc2s1`, in experiment [1], the inhibition is 63.3%. For the same molecule, the pIC50 in [2] is 7.10. The 50% growth inhibitory concentration (GI50) with T-24 was < 0.1 µM.
In the case of `COc1ccc2sc(C(=O)NC(=O)c3cccc(F)n3)cc2c1`, the inhibition was 67.1% in experiment [1] and 53.8% in [4]. Besides, the pIC50 is 7.68 in experiment [2] and 6.60 in experiment [3]. In addition, the Ratio IC50 in the experiment filed under Homo sapiens [5] came to 12. Also, the GI50 in the experiment on T-24 is > 15 µM.
